Source: patent US20070196360A1, “SUCCINIMIDE AND MALEIMIDE DERIVATIVES AND THEIR USE AS TOPOISOMERASE II CATALYTIC INHIBITORS” (TOPOTARGET A/S, priority 2001, published 2007)
Entries after “also recorded” stand apart in the source; their conditions may differ. Like-named read-outs stand apart in the source and are kept apart here. Marks after values point to notes of the source that are not given here.

How the values were obtained:
[1] = test system: extractable topoisomerase II in OC—NYH cells; assay: Band depletion assay
Procedure: OC—NYH cells are incubated for 1 h at 37 C in RPMI 1640 with 10% of fetal calf serum with the desired compounds for test. Thereafter, whole cell lysates were obtained at 4 C. Exponentially growing cells were harvested and washed in PBS. Cells are resuspended in 0.2 mL ELB-buffer (NaCl 0.25 M, NP40 0.1%, HEPES 50 mM, EDTA 5 mM) containing aprotinin 1 μg/ml, leupeptin 1 μg/ml, DTT 1M and PMSF 0.3 mM and lysed for 30 min. Pellets are spun down at 20000×g for 20 min. The protein concentration of the supernatants is measured, and the supernatants are diluted with an equal volume of glycerol.
After heating the nuclear extracts for 5 min at 95 C, the sample is immediately loaded on a 7% SDS-PAGE gel containing 5% glycerol. Thereafter, all steps are performed at RT. The separated proteins are transferred to Trans-Blot® Nitrocellulose, in a Mini Trans-blot® Electrophoretic Transfer Cell with 25 mM Tris, 192 mM glycine and 205 v/v methanol, pH 8.3 at 210 mA for 1 h. Membranes are blocked in 10% milk in TBS-T for 1 h and probed with either topoisomerase II as (1:1000) 1 h. Horseradish-peroxidase-conjugated donkey-antirabbit antibodies are used as secondary antibodies. The blots are developed using ECL™reagent 1 min and thereafter exposed on films for 5 min. Quantification of can be made by densitometric scanning.

[2] = molecular target: T1, purified topoisomerase II α (Homo sapiens, UniProt P11388); assay: Plasmid cleavage assay; type: biochemical
Procedure: The plasmid cleavage assay is capable of assessing wether a given compound stimulates topoisomerase II mediated DNA cleavage in the test tube. A modification of the protocol described in (Burden et al., 2001) is used. 350 ng purified human topoisomerase II α, 400 ng pUC18 DNA, and increasing concentrations of drugs were incubated for 6 min at 37° C. in 20 μl topoisomerase II cleavage buffer (10 mM TRIS-HCL pH 7.9, 50 mM NaCl, 50 mM KCl, 5 mM CaCl2, 1 mM EDTA, 15 μg/ml BSA and 1 mM Na2ATP, all from Sigma Chemical Co., St. Louis, Mo., USA). Next, the cleavable complex was trapped by adding 2 μl 10% SDS. After vigorous vortexing 1.5 μl 0.25 M EDTA and 2 μl proteinase K (0.8 μg/ml) in proteinase buffer (50 mM Tris-HCL pH=7.9, 1 mM CaCl2) was added and the samples vortexed. After a 30 min incubation at 45° C., 5 μl loading buffer (5% Sarkosyl, 0.0025% bromophenol blue, 25% glycerol) was added and the samples were exposed to 70° C. for 5 min. Next, samples were run through a 0.8 % agarose gel in 1× TAE buffer for three hours at 5 V/cm to separate different topological forms of plasmid DNA. Finally the gels were strained in distilled water containing 10 μg/ml ethidium bromide for 15 min followed by de-strained in distilled water for one hour before they were photographed in UV light. […] Further, compounds not capable of stimulating topoisomerase mediated DNA cleavage while being active in the decatenation assay are also classified as topoisomerase II catalytic inhibitors.

[3] = test system: cultured human cancer cells; assay: Clonogenic assay (cytotoxicity; antagonism of topoisomerase II poison cytotoxicity); settings: for IC50: Homo sapiens, read-out: IC50 (clonogenic assay); for inhibition of the toxicity of the classical poisons (protection): poisons VP16, DAU, IDA
Excerpt: The information derived from the clonogenic assay is cytotoxicity.
A 3-week clonogenic assay is used. […] The number of cells is adjusted to obtain 2000 to 3000 colonies in the control dishes. Finally, the colonies are counted.

OC—NYH cells = assay: Alkaline elution (single strand DNA breaks, SSBs)
Procedure: This assay thus provides information concerning a given compounds ability to cause (or antagonize in the case of topoisomerase II catalytic inhibitors in the combination with classical topoisomerase II poisons) DNA damage in intact cells.
The assays for SSBs and for DPCs (DNA-protein cross-links) are performed according to Kohn et. al (23).
For measurement of single-strand breaks (SSBs), L1210 cells used as internal standard are exposed to 100 μM H2O2 for 60 min on ice, corresponding to an irradiation dose of 300 rad as described by Szmigiero and Studzian (25). OC—NYH cells are incubated in medium supplemented with the indicated drug at 37° C. for the specified periods, washed in 10 mL ice-cold PBS and then lysed on the filter (Nucleopore, 2.0 μM pore size) with 5 mL of SDS-EDTA lysis solution (2% SDS, 0.1 glycine and 0.025 M Na2EDTA) at pH 10, followed by addition of 1.5 mL SDS-EDTA lysis solution supplemented with 0.5 mg/mL proteinase K. Mixing of standard and experimental cells is done immediately prior to lysis. […] Fractions are collected at 20-min intervals for 2 h. Filters are treated with 400 μL 1 N HCl for 1 h at 60° C., cooled and 0.4 M NaOH is added prior to scintillation counting.

[4] = molecular target: T1, purified topoisomerase II α; assay: Decatenation assay (kDNA decatenation); type: biochemical
Excerpt: The decatenation assay is a direct measurement of a given compounds inhibitory action on purified topoisomerase II enzyme. The general role of the topoisomerase II enzyme in living cells is to cause decatenation of catenated DNA during cell division. If a compound is able to inhibit this decatenation, the compound is an inhibitor of the topoisomerase II enzyme. While this assay is capable of determining whether a given compound is active against topoisomerase II, information concerning the exact mode of action is not provided.
Topoisomerase II catalytic activity is measured by kDNA decatenation. ^3H labelled kDNA is isolated from Crithidia fasciculata (ATCC, Manassas, Va.) as described in (24). Briefly, relevant concentrations of the test compound in buffer (50 mM Tris-Cl, pH8, 120 mM KCl, 10 mM MgCl2, 1.0 mM ATP, […]) and purified topoisomerase II α is incubated with […] for 15 min at 37° C. in a final volume of 20 μl. After addition of stop buffer/loading dye mix (5% Sarkosyl, 0.0025% bromophenol blue, 25% glycerol), samples are loaded on 1% agarose/0.5% ethidium bromide gels and run in TBE buffer containing […] ethidium bromide at 100V for approximately 50 min and photographed under UV light. In addition, loading wells are cut out and scintillation counted to obtain numerical values. These values are then plotted against drug concentration to obtain dose-response curves enabling the determination of IC50 values for individual compounds.

[5] = animal studies and patients; cited from earlier work
[6] = test system: NCI-H69, NCI-H69/DAU and NCI-H69/VP; assay: Clonogenic assay on NCI-H69 and multi drug resistant derivatives; type: cell-based, human; settings: NCI-H69 versus NCI-H69/DAU and NCI-H69/VP
Excerpt: Further corroboration of catalytic inhibitory activity of compounds of formula M was found in clonogenic assays on human lung cancer cell lines H69/dau and H69/VP because no resistance to compounds of formula M was found in these cell lines which are selected to be daunorubicin and, etopside (VP-16) resistant respectively.
A 3-week clonogenic assay is used. […] Finally, the colonies are counted.

[7] = etoposide 50 uM, compound between 5 and 625 uM
[8] = FIG. 7, read-out: IC50, decatenation assay
[9] = read-out: IC50, topoisomerase II decatenation
[10] = compound 75 uM, daunorubicin 0.3 uM

T1 sequence (P11388 whole entry): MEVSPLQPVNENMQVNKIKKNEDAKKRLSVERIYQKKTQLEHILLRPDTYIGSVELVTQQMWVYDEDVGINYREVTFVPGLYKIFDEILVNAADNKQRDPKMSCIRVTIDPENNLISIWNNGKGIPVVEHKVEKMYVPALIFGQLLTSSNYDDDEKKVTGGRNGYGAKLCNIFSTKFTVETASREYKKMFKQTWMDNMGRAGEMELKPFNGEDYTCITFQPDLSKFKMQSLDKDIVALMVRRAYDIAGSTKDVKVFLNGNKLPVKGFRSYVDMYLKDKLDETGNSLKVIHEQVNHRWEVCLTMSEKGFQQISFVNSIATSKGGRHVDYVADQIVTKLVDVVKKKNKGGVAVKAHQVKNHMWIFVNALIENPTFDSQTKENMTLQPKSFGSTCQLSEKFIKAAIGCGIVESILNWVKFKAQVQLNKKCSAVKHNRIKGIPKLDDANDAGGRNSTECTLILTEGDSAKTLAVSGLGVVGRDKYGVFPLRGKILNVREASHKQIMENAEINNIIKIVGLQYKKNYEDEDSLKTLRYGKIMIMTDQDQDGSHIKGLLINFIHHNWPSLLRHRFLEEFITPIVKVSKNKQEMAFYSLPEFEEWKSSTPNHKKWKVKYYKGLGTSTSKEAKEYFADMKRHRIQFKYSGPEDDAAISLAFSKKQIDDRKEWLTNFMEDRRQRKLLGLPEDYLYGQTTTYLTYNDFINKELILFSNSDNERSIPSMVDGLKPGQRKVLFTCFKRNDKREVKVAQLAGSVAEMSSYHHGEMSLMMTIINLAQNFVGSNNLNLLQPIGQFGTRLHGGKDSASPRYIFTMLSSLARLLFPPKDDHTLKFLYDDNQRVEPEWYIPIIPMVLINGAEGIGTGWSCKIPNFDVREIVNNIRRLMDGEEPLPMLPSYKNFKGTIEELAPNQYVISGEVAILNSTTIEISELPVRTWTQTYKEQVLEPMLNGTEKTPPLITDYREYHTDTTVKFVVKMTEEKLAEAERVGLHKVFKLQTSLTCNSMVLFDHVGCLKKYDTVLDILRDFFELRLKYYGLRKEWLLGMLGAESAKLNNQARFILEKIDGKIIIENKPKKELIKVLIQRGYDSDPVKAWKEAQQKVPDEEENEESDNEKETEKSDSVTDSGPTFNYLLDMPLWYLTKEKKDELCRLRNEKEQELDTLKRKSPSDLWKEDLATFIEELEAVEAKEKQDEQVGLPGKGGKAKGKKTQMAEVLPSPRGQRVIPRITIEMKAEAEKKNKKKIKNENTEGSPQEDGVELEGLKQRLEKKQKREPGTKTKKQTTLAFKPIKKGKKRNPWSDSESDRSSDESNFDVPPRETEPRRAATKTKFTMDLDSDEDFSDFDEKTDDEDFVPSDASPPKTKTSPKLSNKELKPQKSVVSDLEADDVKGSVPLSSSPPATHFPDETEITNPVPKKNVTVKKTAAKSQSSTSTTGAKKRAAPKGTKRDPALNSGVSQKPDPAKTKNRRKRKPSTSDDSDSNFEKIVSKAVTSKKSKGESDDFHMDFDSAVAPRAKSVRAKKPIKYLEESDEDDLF

COc1cc([C@@H]2c3cc4c(cc3[C@@H](O[C@@H]3O[C@@H]5CO[C@@H](C)O[C@H]5[C@H](O)[C@H]3O)[C@H]3COC(=O)[C@H]23)OCO4)cc(OC)c1O [etoposide, reference compound]
extractable amount of topoisomerase II ([1]; cells treated with 100 μM): clearly reduced

CCN1C(=O)C=CC1=O [NEM, N-ethyl-maleimide]
antagonism of etoposide induced DNA cleavage [2]: capable of antagonising
stimulation of topoisomerase II mediated DNA cleavage [2]: does not stimulate
antagonism of etoposide induced DNA cleavage [2, 7]: Strong
IC50 [3]: 4 µM
DNA damage by the compound itself (OC—NYH cells; concentrations up to 250 uM): Only limited DNA
inhibition of topoisomerase II catalytic activity (decatenation), in words [4]: Very potent,
IC50 [4, 8]: ~4 µM
IC50 [4, 9]: 5 µM

C[C@@H](CN1CC(=O)NC(=O)C1)N1CC(=O)NC(=O)C1 [ICRF-187, (+)-1,2-bis(3,5-dioxopiperazinyl-1-yl)propane, reference compound]
antagonism of etoposide induced DNA cleavage [2]: cleavage. No
protection class ([3]; compound 500 uM, idarubicin 0.01 μM): (IDA(0.01)+ up to (The + indicates, that the protection. i.e. log(number of surviving cells) is about 1.)
survival ([3]; compound 500 uM, idarubicin 0.03): ≤ 40% survival)*
LD50 ([3]; compound alone): 750 µM
toxic to cells ([3]; compound given alone): no toxicity and Not
inhibition of the toxicity of the classical poisons (protection) [3]: Effective inhibitor of
reversal of etoposide (VP-16) induced SSBs (OC—NYH cells; compound 500 μM, etoposide 3 μM (FIG. 4)): reversal
inhibition of VP-16 induced SSBs (OC—NYH cells; compound at 200 uM): Effective inhibition of
inhibition of topoisomerase II catalytic activity (decatenation), in words [4]: effectively. IC50 about
IC50 [4, 9]: ~50 µM
protection against anthracycline extravasation injuries [5]: protected

CN1C(=O)C=CC1=O [NMM, N-methyl-maleimide]
antagonism of etoposide and daunorubicin mediated cytotoxicity [3]: effectively blocked
IC50 [3]: 4 µM
inhibition of topoisomerase II catalytic activity (decatenation), in words [4]: Very potent,
IC50 [4, 8]: ~4 µM
IC50 [4, 9]: 5 µM

CC(CNC1CC(=O)NC1=O)NC1CC(=O)NC1=O (stereo not shown) [I-112]
protection against VP-16 toxicity [3]: VPneg.
protection class [3, 10]: DAU(0.3[…]uM)+ up to (The + indicates, that the protection. i.e. log(number of surviving cells) is about 1.)
survival [3, 10]: ≤ 20% survival.
LD10 ([3]; compound alone): LD10 = 75 uM.
toxic to cells ([3]; compound given alone): no cytotoxicity; also recorded: Not toxic to cells
inhibition of the toxicity of the classical poisons (protection) [3]: able to protect; also recorded: Inhibits the toxicity of
inhibition of VP-16 induced SSBs (OC—NYH cells; compound at 250 uM, FIG. 4: etoposide 3 μM): reversal; also recorded: Effective inhibition of
inhibition of topoisomerase II catalytic activity (decatenation), in words [4]: effectively. IC50 about
IC50 [4, 9]: ~100 µM

O=C1C=CC(=O)N1 [maleimide]
cross resistance of MDR cell lines [6]: No cross resistance
antagonism of etoposide induced DNA cleavage [2]: capable of antagonising
stimulation of topoisomerase II mediated DNA cleavage [2]: does not stimulate
antagonism of etoposide induced DNA cleavage [2, 7]: Strong
antagonism of etoposide and daunorubicin mediated cytotoxicity [3]: effectively blocked
survival ([3]; compound 0.5 uM, DAU 0.5 uM): up to 10%
protection class ([3]; compound 0.5 uM, VP-16 20 uM): (VP-16 (20 uM)+ (The + indicates, that the protection. i.e. log(number of surviving cells) is about 1.)
survival ([3]; compound 0.5 uM, VP-16 20 uM): up to 30%
LD50 ([3]; compound alone): LD50 4 uM.
toxic to cells ([3]; compound given alone): toxic to cells in itself; also recorded: Very toxic to
inhibition of poison induced cell toxicity ([3]; etoposide 20 μM and daunorubicin 0.3 μM (FIG. 3)): strong
inhibition of the toxicity of the classical poisons (protection) [3]: Effective
antagonism of DNA damage induced by etoposide, daunorubicin or doxorubicin (OC—NYH cells): antagonize
inhibition of VP-16 induced SSBs (OC—NYH cells; compound at 50 uM): antagonise; also recorded: Effective
inhibition of topoisomerase II catalytic activity (decatenation), in words [4]: Very potent,
IC50 [4, 8]: ~2 µM
IC50 [4, 9]: 2 µM
band depleting effect of etoposide ([1]; etoposide 100 μM, compound 50 μM (FIG. 10)): completely lost

O=C1CC(NCCNC2CC(=O)NC2=O)C(=O)N1 (stereo not shown) [I-21, N,N′-Di-(pyrrolidine-2′,5′-dione-3′-yl)-ethylene-1,2-diamine]
protection class ([3]; compound 500 uM, VP-16 20 uM): + (The + indicates, that the protection. i.e. log(number of surviving cells) is about 1.)
survival ([3]; compound 500 uM, VP-16 20 uM): ≤ 1%
LD50 ([3]; compound alone): LD50 = 750 uM.
toxic to cells ([3]; lower pH): pH 7.4. Tax at lower
toxic to cells ([3]; pH 7.4): Not toxic to cells
inhibition of the toxicity of the classical poisons (protection) [3]: Only very weak
effect on the VP-16 induced SSBs (OC—NYH cells; compound from 50-500 uM): No effect on the VP-16
concentration from which topoisomerase II decatenation is inhibited [4]: above 500 uM. IC50
IC50 [4, 9]: ~800 µM
